Assay results published in patent US20130119363A1, “FLUORINE-CONTAINING AROMATIC COMPOUND, ORGANIC SEMICONDUCTOR MATERIAL AND ORGANIC THIN FILM DEVICE” (ASAHI GLASS COMPANY, LIMITED, priority 2010, published 2013).

Assay: Evaluation of coating properties (orthodichlorobenzene solution, spin coating)
Format: physicochemical
Conditions: one mass % orthodichlorobenzene solution, filtered through a PTFE filter, spin coated on silicon substrate; thin film formed
Description: One mass % of orthodichlorobenzene solution of the fluorine-containing aromatic compound (II) obtained by the synthesis example (1-1) was prepared. The obtained solution was filtered with a PTFE (polytetrafluoroethylene) filter of which thickness was 0.45 μm, and thereafter, it was coated on a silicon substrate by the spin coating. A coating condition was 1500 rotations per minute for 30 seconds. Next, the silicon substrate was placed on the hot plate, and heated at 150° C. for 90 seconds. After that, a film thickness of a compound (II) layer formed on the silicon substrate was measured by using an AFM (atomic force microscope), and it was 70 nm.
One mass % of orthodichlorobenzene solution of the fluorine-containing aromatic compound (12) obtained by the synthesis example (2-1) was prepared. The obtained solution was filtered with the PTFE (polytetrafluoroethylene) filter of which thickness was 0.45 μm, and thereafter, it was coated on the silicon substrate by the spin coating. The coating condition was 1500 rotations per minute for 30 seconds. Next, the silicon substrate was placed on the hot plate, and the heating process was performed at 120° C. for 120 seconds. After that, a film thickness of a compound (12) layer formed on the silicon substrate was measured by using the AFM (atomic force microscope), and it was 80 nm.
One mass % of orthodichlorobenzene solution of the fluorine-containing aromatic compound (13) obtained by the synthesis example (3-1) was prepared. The obtained solution was filtered with the PTFE (polytetrafluoroethylene) filter of which thickness was […], and thereafter, it was coated on the silicon substrate by the spin coating. The coating condition was 1500 rotations per minute for 30 seconds. Next, the silicon substrate was placed on the hot plate, and heated at 120° C. for 120 seconds. After that, a film thickness of a fluorine-containing aromatic compound (13) layer formed on the silicon substrate was measured by using the AFM (atomic force microscope), and it was 90 nm.

| Compound | solubility for general solvents |
| --- | --- |
| CCCCCCOc1c(F)c(F)c2c(F)c(C#Cc3ccc4cc(C#Cc5c(F)c(F)c6c(F)c(OCCCCCC)c(F)c(F)c6c5F)ccc4c3)c(F)c(F)c2c1F [Compound (11), 2,6-bis((6-hexyloxyhexafluoronaphthalene-2-yl)ethynyl)naphthalene] | good solubility |
| CCCCCCOc1c(F)c(F)c(C#Cc2ccc(-c3ccc(-c4ccc(C#Cc5c(F)c(F)c(OCCCCCC)c(F)c5F)s4)s3)s2)c(F)c1F [Compound (13), 5,5″-bis((4-hexyloxytetrafluorophenyl)ethynyl)-2.2°: 5,2″-terthiophene] | good solubility |
| CCCCCCOc1c(F)c(F)c(C#Cc2ccc3cc(C#Cc4c(F)c(F)c(OCCCCCC)c(F)c4F)ccc3c2)c(F)c1F [Compound (12), 2,6-bis((4-hexyloxytetrafluorophenyl)ethynyl)naphthalene] | good solubility |
